“Also recorded” adds a separate entry of the source. Read-outs that look alike come from different tables or passages of the source. *1 amine or outer side, *2 acyl side, *3 side chain or, on linkers, in order; H or OH if unused. Where a SMILES comes first, the peptide text is derived from it. Bridges are numbered along the chain shown (N, C = ends). Roman numbers before positions name the chains, in order. [ ]: non-standard residue; d: D form. Actinocin(9to1) = Cc1c2oc3c(C)ccc(C(=O)[*:1])c3nc-2c(C(=O)[*:2])c(N)c1=O; NMeV = CN[C@H](C(=O)O)C(C)C; Nle = CCCC[C@H](N)C(=O)O; Sar = CNCC(=O)O
Assays:
[1] = system: LDL FC uptake by fibroblast monolayers; assay: Transfer of LDL-derived 3H-FC into fibroblast monolayers with metabolic inhibitors (Example 2); format: cell-based, human; parameters: Emax: dose or concentration left out as unconfirmed; conditions: for effect on uptake of 3H-FC from LDL: brefeldin A, vinblastine, taxol, nocodazole, NEM 2 mM; for inhibition at higher concentration: 100 mM (monensin: up to 100 mM)
caveolin mRNA = assay: Caveolin mRNA levels (Northern blot)
[2] = system: intracellular FC transport to the cell surface in fibroblast monolayers; assay: Transfer of intracellular 3H-FC to the cell surface (cholesterol oxidase); format: cell-based, human; conditions: in words
Protocol: This assay utilized the finding (see Example 1) that only FC in the caveolar fraction of the plasma membrane fraction was modified by cholesterol oxidase in unfixed fibroblast monolayers.
The rate at which intracellular LDL-derived ^3 H-FC became accessible at the cell surface was measured as follows. Cell monolayers were labeled with ^3 H-FC LDL under the conditions shown for each experiment. Unbound and adsorbed LDL were removed as described above. In some experiments metabolic inhibitors of different transport steps were then added for 30 min at 15° C. […] Cholesterol oxidase (Boehringer-Manheim, Indianapolis, Ind., USA) was added in PBS to a final concentration of 1 U ml^-1. Incubation was for 4 h at 0° C. The cells were washed with ice-cold PBS, and extracted with 0.1 N NAOH. Cell total lipid was extracted with chloroform-methanol (1:1 v/v). […] .
Fibroblast monolayers were prelabeled with FC-labeled LDL for 2 min at 31° C. Medium and surface-bound labeled LDL were removed as described above. The cells were incubated with inhibitors of intracellular transport for 30 min at 15° C. Movement of FC label to the cell surface remained negligible (FIG. 11). The cells were brought to 31° C. for 15 min, and then cooled on wet ice. ^3 H-FC transfer to the cell surface (in the presence and absence of inhibitor) was assayed with cholesterol oxidase as described above.

[3] = system: LDL FC uptake by fibroblast monolayers; assay: Effects of metabolic inhibitors on uptake of 3H-cholesterol from LDL (Example 1); conditions: for effect on LDL FC uptake: in words
[4] = system: LDL FC uptake by fibroblast monolayers; conditions: for effect on LDL FC uptake: in words
fibroblasts = conditions: cited from earlier work
fibroblast monolayers = assay: FC efflux from fibroblast monolayers (3H-FC label); format: cell-based, human; conditions: in words
Protocol: Fibroblast monolayers were equilibrated with ^3 H-FC-labeled native plasma or with isolated ^3 H-labeled LDL, as specified for each experiment. Following incubation, the dishes were washed with albumin-complete PBS and then (×4) with complete PBS. They were then incubated for 3 min with unlabeled plasma or lipoprotein fractions and the rate of appearance of radioactivity in the medium determined. Samples of medium ([…]) were immediately chilled in ice water and centrifuged (10 min, 2000×g) at 0-2° C. ^3 H-cholesterol radioactivity in the supernatant was either assayed directly, or fractionated by agarose gel electrophoresis. FC efflux was linear as previously reported (Kawano et al., Biochemistry, 32: 5025-5028 (1993)).
For electrophoresis, […] portions of labeled medium were added to strips of 0.75% w/v agarose in 0.025 M barbital buffer (pH 8.6) and separated as previously described (Fielding et al., Biochemistry, 30: 8551-8557 (1991)). 2.5 mm gel fractions were then collected, and radioactivity measured. The location of major lipoprotein classes was determined from strips run simultaneously with whole native plasma equilibrated (60 min, 37° C.) With ^3 HFC.
Rates of FC influx and efflux between medium and fibroblast monolayers preincubated for 24 h with 7-80% native human plasma in DMEM were determined. Cells equilibrated in 80% compared to 7% v/v plasma contained 35-40% more total cholesterol but only 10-15% more FC. In 50% v/v plasma, cholesteryl ester levels were lower than in 80% plasma but FC levels were almost the same. Rates of transfer of FC between the cells and their extracellular medium were determined for each plasma dilution. […] was measured as the rate of transfer of ^3 H-FC radioactivity from labeled native plasma to unlabeled cells. […] was determined as the rate of transfer of radioactivity from uniformly labeled cells to unlabeled native plasma medium.

[5] = system: LDL-receptor deficient cells (GM 2000 line); assay: FC transfer from LDL to LDL receptor-deficient cells (GM 2000); format: cell-based
[6] = system: normal human skin fibroblasts; assay: Cell synchronization by aphidicolin (flow cytometry); format: cell-based
Protocol: Normal human skin fibroblasts were cultured in 10% fetal calf serum in Dulbecco's modified Eagles medium (DMEM). […] After 3 days, dishes were incubated with aphidicolin (4 μg/ml)(CalBiochem, San Diego, Calif.) to inhibit DNA polymerase, leading to cell arrest immediately before S-phase (Tobey et al. (1988) Expt. Cell Res. […]). After 24 h incubation with aphidicolin, the inhibitor was removed for a further 12 h, then restored for a `double block` at 8 μg/ml for a further 24 h (Sourlingas et al. (1996) Anal. Biochem. 234:104-107). After final removal from inhibitor into 10% serum-DME medium, the cells during incubation over the next 32 h at 37° C. […]
After 3 days, dishes were incubated with aphidicolin (4 μg/ml)(CalBiochem, San Diego, Calif.) to inhibit DNA polymerase, leading to cell arrest immediately prior to DNA synthesis (S-phase) (Tobey et al. (1988) Exptl. Cell Res. 179: 400-416, Sourlingas and Sekeri-Pataryas (1996) Anal. Biochem. 234: 104-107.). […] Cell synchronization was assessed by flow cytometry using the cell permeable stain Hoechst 33342 (Molecular Probes, Eugene, Oreg.)(Haas-Kogan et al. (1995) EMBO J. 14: 461-472.). […] Samples were analysed on a FACStar Plus (Becton Dickinson, San Jose, Calif.). Data was analysed using Lysis II software (Becton Dickinson). […]

COC1=CC(C)=CC(C)C(O)C(C)CC(C)=CC=CC(OC)C(C(C)C(O)C(C)C2(O)CC(O)C(C)C(C(C)C)O2)OC1=O (single isomer, unassigned) [Bafilomycin A1]
Emax ([1]; Homo sapiens, Fibroblast, read-out: maximal effect on LDL-FC uptake): 30%

CCCC[C@@H](C=O)NC(=O)[C@H](CC(C)C)NC(=O)[C@H](CC(C)C)NC(C)=O [ALLN] (Ac-Leu-Leu-[Nle]-aldehyde)
effect on caveolin mRNA levels / caveolin gene expression (caveolin mRNA; 25 μM ALLN, 7% or 80% v/v plasma): superinhibited caveolin mRNA levels regardless of LDL-FC; also recorded: superinhibited the expression of the caveolin gene; also recorded: strongly inhibited caveolin mRNA levels even below the level expressed in cells equilibrated in 7% v/v plasma; also recorded: completely prevented the activation of caveolin mRNA levels observed in 80% v/v plasma

C[C@H]1CCC/C=C/[C@@H]2C[C@H](O)C[C@H]2[C@H](O)/C=C/C(=O)O1 [Brefeldin A]
effect on transport of intracellular 3H-FC to the cell surface [2]: unaffected
effect on uptake of 3H-FC from LDL [1]: without effect

CCN(CC)CCCC(C)Nc1ccnc2cc(Cl)ccc12 (stereo not drawn) [Chloroquine]
effect on LDL FC uptake [3]: no effect

C=C1C(C)C2C(Cc3ccccc3)NC(=O)C23C(OC(C)=O)/C=C/C(C)(O)C(=O)C(C)CC=CC3C1O (stereo not drawn) [Cytochalasin D]
effect on transport of intracellular 3H-FC to the cell surface [2]: no effect
inhibition at higher concentration ([1]; listed as Cytochalasin): No greater inhibition
inhibition at higher concentration ([1]; listed as cytochalasin D): no increase in inhibition

C=C[C@@]1(C)CC(=O)[C@]2(O)[C@@]3(C)[C@@H](O)CCC(C)(C)[C@@H]3[C@H](O)[C@H](OC(C)=O)[C@@]2(C)O1 [Forskolin]
effect on LDL FC uptake [4]: no effect
effect on transfer of newly-synthesized cholesterol to plasma membrane (fibroblasts): stimulated

CC(C)Cn1c(=O)n(C)c(=O)c2[nH]cnc21 [IBMX, isobutyl methylxanthine]
activity ([4]; fibroblast monolayers, 60 min): 111%
effect on LDL FC uptake [4]: no effect
effect on transfer of newly-synthesized cholesterol to plasma membrane (fibroblasts): stimulated

O=[N+]([O-])[O-].[K+] [KNO3]
initial rate of efflux of FC from prelabeled cells to plasma (fibroblast monolayers): increased several-fold
effect on transport of intracellular 3H-FC to the cell surface [2]: inhibited the return of FC to the cell surface, but less effectively than did nocodazole
inhibition of the uptake of free cholesterol from LDLs ([3]; FIG. 8): > 80%
time course of inhibition of LDL FC uptake ([3]; NEM: first 10-15 min, KNO3: 50 mM, data not shown): comparable time course

CC[C@@]1([C@@H]2O[C@@H]([C@H]3O[C@@](O)(CO)[C@H](C)C[C@@H]3C)C[C@@H]2C)CC[C@H]([C@]2(C)CC[C@]3(C[C@H](O)[C@@H](C)[C@@H]([C@@H](C)[C@@H](OC)[C@H](C)C(=O)O)O3)O2)O1 [Monensin]
effect on selective uptake of FC from LDL in GM2000 cells ([5]; in words): Comparable results
inhibition at higher concentration [1]: no increase in inhibition
effect on uptake of 3H-FC from LDL [1]: effective in reducing the selective uptake of FC from LDL

[NH4+].[O]=[V](=[O])[O-] [NH4 -vanadate]
effect on LDL FC uptake [3]: without effect

[N-]=[N+]=[N-].[Na+] [Na-azide]
effect on LDL FC uptake [3]: without effect

COC(=O)Nc1nc2ccc(C(=O)c3cccs3)cc2[nH]1 [Nocodazole]
effect on transport of intracellular 3H-FC to the cell surface [2]: reduced
effect on uptake of 3H-FC from LDL [1]: without effect

CC[C@]1(O)C[C@@H]2CN(CCc3c([nH]c4ccccc34)[C@@](C(=O)OC)(c3cc4c(cc3OC)N(C)[C@H]3[C@@](O)(C(=O)OC)[C@H](OC(C)=O)[C@]5(CC)C=CCN6CC[C@]43[C@@H]65)C2)C1 [Vinblastine]
effect on transport of intracellular 3H-FC to the cell surface [2]: unaffected
effect on uptake of 3H-FC from LDL [1]: without effect

Cc1c2oc3c(C)ccc(C(=O)N[C@@H]4C(=O)N[C@H](C(C)C)C(=O)N5CCC[C@H]5C(=O)N(C)CC(=O)N(C)[C@@H](C(C)C)C(=O)O[C@@H]4C)c3nc-2c(C(=O)N[C@@H]2C(=O)N[C@H](C(C)C)C(=O)N3CCC[C@H]3C(=O)N(C)CC(=O)N(C)[C@@H](C(C)C)C(=O)O[C@@H]2C)c(N)c1=O [actinomycin, actinomycin D] (I: T[dV]P[Sar][NMeV] / II: T[dV]P[Sar][NMeV]; ester I:1-I:C, II:1-II:C; linker I:N-II:N via Actinocin(9to1))
t1/2 of decrease in caveolin mRNA levels (caveolin mRNA; actinomycin 2.5 μg ml^-1, activated and baseline cells, n=4): 8.0 ± 1 h
caveolin mRNA level relative to total RNA (caveolin mRNA; baseline cells, 8 h with actinomycin, 37° C.): 0.52

C[C@@]1(CO)[C@H](O)CC[C@@]2(C)[C@H]1CC[C@H]1C[C@@H]3C[C@@]12CC[C@]3(O)CO [aphidicolin]
cells synchronized to enter S-phase ([6]; Example 4, following removal of inhibitor): ~ 85%
cells in synchrony at the beginning of S phase ([6]; Example 5, 4 then 8 μg/ml aphidicolin): 83.9±3.1%

CC(=O)O[C@H]1C(=O)[C@@]2(C)[C@H]([C@H](OC(=O)c3ccccc3)[C@]3(O)C[C@H](OC(=O)[C@H](O)[C@@H](NC(=O)c4ccccc4)c4ccccc4)C(C)=C1C3(C)C)[C@]1(OC(C)=O)CO[C@@H]1C[C@@H]2O [taxol]
effect on uptake of 3H-FC from LDL [1]: without effect

heparin
inhibition of LDL FC influx ([3]; normal fibroblasts, 0.1 mg/ml heparin, LDL 150 Fg FC ml^-1, 10 min): Approximately 80%
inhibition of LDL FC influx ([5]; GM 2000 cells, 0.1 mg/ml heparin, LDL 150 Fg FC ml^-1, 10 min): Approximately 80%

Reference: patent US6261760A, “Regulation of the cell cycle by sterols” (priority 1999, dated 2001)
